Source: patent publication US11690845B2, “Methods of administering elagolix” (priority 2020, dated 2023)
Where two headings read alike, the source gives them in different places.

Tests used:
[1] = Pharmacogenomics: elagolix plasma concentrations by SLCO1B1 521T>C genotype; assay type: in vivo, human; settings: SLCO1B1 521 C/C genotype
From the text: Hepatic uptake of elagolix involves the OATP1B1 transporter protein. Higher plasma concentrations of elagolix have been observed in patients who have two reduced function alleles of the gene that encodes OATP1B1 (SLCO1B1 521T>C) (these patients are likely to have reduced hepatic uptake of elagolix; and thus, higher plasma elagolix concentrations). The frequency of this SLCO1B1 521 C/C genotype is generally less than […] in most racial/ethnic groups. Women with this genotype are expected to have approximately 2-fold higher elagolix mean concentrations compared to women with normal transporter function (i.e., SLCO1B1 521T/T genotype). Adverse effects of elagolix have not been fully evaluated in subjects who have two reduced function alleles of the gene that encodes OATP1B1 (SLCO1B1 521T>C). The above listed examples should not be deemed to limit the scope of the invention as claimed.

CYP2C19 = CYP2C19 (Homo sapiens, UniProt P33261); test: In vitro studies: CYP2C19 inhibition; assay type: in vitro ADME
[2] = molecular target: T1, rat gonadotropin-releasing hormone (GnRH) receptor (Rattus norvegicus, UniProt P30969); test: Binding to rat versus human GnRH receptor; settings: rat vs human GnRH receptor
T1 sequence (P30969 1-327): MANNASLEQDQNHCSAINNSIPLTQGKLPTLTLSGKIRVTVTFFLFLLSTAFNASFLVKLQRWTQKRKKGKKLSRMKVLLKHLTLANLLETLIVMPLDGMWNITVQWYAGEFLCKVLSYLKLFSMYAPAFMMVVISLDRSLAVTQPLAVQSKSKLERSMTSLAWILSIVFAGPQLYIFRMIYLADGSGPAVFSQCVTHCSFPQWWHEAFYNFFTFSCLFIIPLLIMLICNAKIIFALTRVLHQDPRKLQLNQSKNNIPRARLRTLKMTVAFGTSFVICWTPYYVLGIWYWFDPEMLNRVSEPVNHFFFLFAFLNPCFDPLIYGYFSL

[3] = Drug interaction studies: pharmacokinetics of elagolix in the presence of co-administered drugs; assay type: in vivo, human; settings: for Ratio (90% CI) AUC of elagolix, co-administration vs elagolix alone / Ratio (90% CI) Cmax of elagolix, co-administration vs elagolix alone: elagolix 150 mg single dose
Protocol: Drug interaction studies were performed with elagolix and other drugs likely to be co-administered and with drugs commonly used as probes for pharmacokinetic interactions.

CYP2B6 = test: In vitro studies: CYP2B6 induction; assay type: in vitro ADME
P-gp = P-gp (Homo sapiens, UniProt P08183); test: Substrate of P-gp; assay type: in vitro ADME
CYP3A4 = test: In vitro studies: CYP3A4 (CYP3A) induction; assay type: in vitro ADME; settings: in vitro studies (CYP3A4; b159: CYP3A)
rabbits = test: Embryofetal development study in the rabbit; assay type: in vivo
Protocol: (§2) Embryofetal development studies were conducted in the rat and rabbit. Elagolix was administered by oral gavage to pregnant rats (25 animals/dose) at doses of 0, 300, 600 and 1200 mg/kg/day and to rabbits (20 animals/dose) at doses of 0, 100, 150, and 200 mg/kg/day, during the period of organogenesis (gestation day 6-17 in the rat and gestation day 7-20 in the rabbit).

CYP3A = test: Substrate of / metabolism by CYP3A; assay type: in vitro ADME
[4] = Pre- and postnatal development study in rats; assay type: in vivo, rat; settings: female, rat, plasma, oral, rats, read-out: maternal plasma concentration
Protocol: (§1) In a pre- and postnatal development study in rats, elagolix was given in the diet to achieve doses of 0, 100 and 300 mg/kg/day (25 per dose group) from gestation day 6 to lactation day 20. […] Pup survival was decreased from birth to postnatal day 4. […] Smaller body size and effect on startle response were associated with lower pup weights at 300 mg/kg/day. Post-weaning growth, development and behavioral endpoints were unaffected.

rats = test: Pre- and postnatal development study in rats; assay type: in vivo, rat; settings: for maternal plasma concentration relative to maximal elagolix concentration (Cmax) in humans at the MRHD: rats
Protocol: as §1

pregnant rats = test: Embryofetal development study in the rat; assay type: in vivo
Protocol: as §2

P-glycoprotein (P-gp) = P-glycoprotein (P-gp) (Homo sapiens, UniProt P08183); test: Inhibition of efflux transporter P-gp; assay type: in vitro ADME
OATP1B1 = molecular target: T2, OATP1B1 (Homo sapiens, UniProt Q9Y6L6); test: Substrate of OATP1B1; assay type: in vitro ADME
T2 sequence (Q9Y6L6 1-691): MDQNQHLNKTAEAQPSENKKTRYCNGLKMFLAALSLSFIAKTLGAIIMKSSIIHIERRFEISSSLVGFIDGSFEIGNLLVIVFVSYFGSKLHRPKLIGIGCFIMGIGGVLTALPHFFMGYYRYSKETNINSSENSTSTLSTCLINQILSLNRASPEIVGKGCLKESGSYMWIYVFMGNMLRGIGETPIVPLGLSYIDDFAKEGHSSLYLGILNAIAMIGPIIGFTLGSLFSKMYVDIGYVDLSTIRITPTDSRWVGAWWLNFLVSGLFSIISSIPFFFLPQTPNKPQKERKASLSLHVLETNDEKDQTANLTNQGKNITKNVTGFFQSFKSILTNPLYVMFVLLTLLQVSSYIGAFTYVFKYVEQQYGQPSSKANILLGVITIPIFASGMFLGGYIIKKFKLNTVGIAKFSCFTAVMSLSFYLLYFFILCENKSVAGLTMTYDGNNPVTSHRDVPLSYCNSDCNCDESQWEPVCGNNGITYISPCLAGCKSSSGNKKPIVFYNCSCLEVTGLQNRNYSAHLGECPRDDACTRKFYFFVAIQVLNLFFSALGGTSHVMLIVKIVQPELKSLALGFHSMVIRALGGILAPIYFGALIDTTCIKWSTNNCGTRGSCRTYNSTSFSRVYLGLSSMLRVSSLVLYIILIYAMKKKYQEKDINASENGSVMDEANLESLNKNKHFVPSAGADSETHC

[5] = Ketoconazole 400 mg once daily, N 11
[6] = Rifampin 600 mg single dose, N 12
[7] = rabbits, highest, maternally toxic dose
[8] = lactation day 21, 100 mg/kg/day
[9] = lactation day 21, 300 mg/kg/day

Sequence of P-gp (P08183 whole entry): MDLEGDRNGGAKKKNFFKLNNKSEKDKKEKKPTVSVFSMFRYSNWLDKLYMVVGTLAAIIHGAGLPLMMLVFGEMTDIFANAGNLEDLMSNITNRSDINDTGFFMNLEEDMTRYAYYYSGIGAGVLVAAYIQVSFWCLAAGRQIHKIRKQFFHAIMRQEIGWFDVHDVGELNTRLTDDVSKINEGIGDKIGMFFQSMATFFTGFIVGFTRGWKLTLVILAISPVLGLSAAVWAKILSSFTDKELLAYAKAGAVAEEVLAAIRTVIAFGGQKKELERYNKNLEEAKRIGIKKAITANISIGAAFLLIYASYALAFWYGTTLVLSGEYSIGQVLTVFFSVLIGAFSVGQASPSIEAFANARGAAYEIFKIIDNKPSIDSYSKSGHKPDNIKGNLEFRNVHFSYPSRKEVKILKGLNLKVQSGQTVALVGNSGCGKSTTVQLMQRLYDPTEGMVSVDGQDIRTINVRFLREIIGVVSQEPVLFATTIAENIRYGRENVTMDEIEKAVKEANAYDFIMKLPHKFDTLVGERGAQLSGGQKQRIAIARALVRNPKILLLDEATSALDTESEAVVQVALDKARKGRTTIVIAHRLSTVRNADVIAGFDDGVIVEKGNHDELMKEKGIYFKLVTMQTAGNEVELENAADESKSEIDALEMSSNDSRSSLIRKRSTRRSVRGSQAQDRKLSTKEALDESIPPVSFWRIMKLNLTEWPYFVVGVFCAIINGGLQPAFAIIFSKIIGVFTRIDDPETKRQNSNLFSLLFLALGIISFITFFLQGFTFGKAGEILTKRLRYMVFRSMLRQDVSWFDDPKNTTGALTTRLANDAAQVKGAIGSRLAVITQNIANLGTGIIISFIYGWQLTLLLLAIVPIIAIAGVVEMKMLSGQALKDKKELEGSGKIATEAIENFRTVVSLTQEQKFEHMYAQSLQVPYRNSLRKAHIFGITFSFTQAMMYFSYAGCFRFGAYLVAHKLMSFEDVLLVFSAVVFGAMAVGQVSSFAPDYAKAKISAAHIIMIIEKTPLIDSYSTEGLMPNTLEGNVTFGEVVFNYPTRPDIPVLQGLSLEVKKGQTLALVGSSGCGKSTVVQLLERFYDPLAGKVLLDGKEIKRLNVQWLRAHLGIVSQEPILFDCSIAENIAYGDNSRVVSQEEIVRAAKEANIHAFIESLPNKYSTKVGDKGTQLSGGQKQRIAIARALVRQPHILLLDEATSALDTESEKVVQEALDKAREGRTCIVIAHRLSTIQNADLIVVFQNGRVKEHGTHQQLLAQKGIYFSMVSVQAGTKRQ
Sequence of P-glycoprotein (P-gp) (P08183 whole entry): as above
Sequence of CYP2C19 (P33261 whole entry): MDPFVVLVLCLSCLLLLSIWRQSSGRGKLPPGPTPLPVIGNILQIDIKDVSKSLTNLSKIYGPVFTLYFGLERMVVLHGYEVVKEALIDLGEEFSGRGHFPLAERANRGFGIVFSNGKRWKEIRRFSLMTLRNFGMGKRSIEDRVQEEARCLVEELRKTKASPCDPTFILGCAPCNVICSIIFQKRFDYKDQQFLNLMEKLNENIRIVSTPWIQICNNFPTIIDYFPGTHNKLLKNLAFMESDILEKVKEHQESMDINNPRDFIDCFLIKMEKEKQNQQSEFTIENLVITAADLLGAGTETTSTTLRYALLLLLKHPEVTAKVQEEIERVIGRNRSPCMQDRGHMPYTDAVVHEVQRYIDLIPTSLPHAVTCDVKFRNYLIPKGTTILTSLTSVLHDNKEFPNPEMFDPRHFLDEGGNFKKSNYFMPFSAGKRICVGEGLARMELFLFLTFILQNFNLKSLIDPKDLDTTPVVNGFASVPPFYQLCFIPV

COc1cccc(-c2c(C)n(Cc3c(F)cccc3C(F)(F)F)c(=O)n(C[C@H](NCCCC(=O)O)c3ccccc3)c2=O)c1F [elagolix, 4-((R)-2-[5-(2-fluoro-3-methoxy-phenyl)-3-(2-fluoro-6-trifluoromethyl-benzyl)-4-methyl-2,6-dioxo-3,6-dihydro-2H-pyrimidin-1-yl]-1-phenyl-ethylamino)-butyric acid]
plasma concentrations in patients with two reduced function alleles of SLCO1B1 521T>C [1]: Higher
elagolix mean concentrations vs women with normal transporter function (SLCO1B1 521T/T) ([1]; expected): approximately 2 fold higher
CYP2C19 inhibition (CYP2C19): weak inhibitor
binding to rat GnRH receptor relative to human GnRH receptor [2]: ~1000 fold less
Ratio (90% CI) AUC of elagolix, co-administration vs elagolix alone [3, 5]: 2.20
Ratio (90% CI) Cmax of elagolix, co-administration vs elagolix alone [3, 5]: 1.77
Ratio (90% CI) AUC of elagolix, co-administration vs elagolix alone ([3]; Rifampin 600 mg once daily): 1.65
Ratio (90% CI) Cmax of elagolix, co-administration vs elagolix alone ([3]; Rifampin 600 mg once daily): 2.00
Ratio (90% CI) AUC of elagolix, co-administration vs elagolix alone [3, 6]: 5.58
Ratio (90% CI) Cmax of elagolix, co-administration vs elagolix alone [3, 6]: 4.37
plasma concentrations of elagolix with concomitant rifampin ([3]; concomitant use of rifampin): increased
changes in elagolix exposures ([3]; elagolix 300 mg twice daily with rosuvastatin (20 mg once daily), sertraline (25 mg once daily) or fluconazole (200 mg single dose)): No clinically significant changes
CYP2B6 induction (CYP2B6): weak to moderate inducer
substrate of P-gp (P-gp): substrate
CYP3A4 / CYP3A induction (CYP3A4): weak to moderate inducer
fetal malformations (rabbits; rabbit, any dose level tested): No fetal malformations
dose with spontaneous abortion and total litter loss, multiple of MRHD (rabbits; rabbits, oral, organogenesis, highest, maternally toxic dose, based on AUC): 7 times the MRHD
total litter loss (rabbits; rabbits, 150 mg/kg/day, non-maternally toxic): single total litter loss
spontaneous abortions (rabbits; [7]): three spontaneous abortions
total litter loss (rabbits; [7]): single total litter loss
dose with total litter loss, multiple of MRHD (rabbits; rabbits, lower non-maternally toxic dose of 150 mg/kg/day): 4 times the MRHD
substrate of CYP3A (CYP3A): substrate
concentration at 21 lactation day [4, 8]: 47 ng/mL
concentration at 21 lactation day [4, 9]: 125 ng/mL
pup birth weights (rats; 300 mg/kg/day): lower birth weights
dams failing to deliver (rats; highest dose (300 mg/kg/day)): one failed to deliver
dams with total litter loss (rats; highest dose (300 mg/kg/day)): two dams
pup survival (rats; highest dose, birth to postnatal day 4): decreased
post-weaning growth, development and behavioral endpoints (rats; rat, in vivo): unaffected
maternal plasma concentration relative to maximal elagolix concentration (Cmax) in humans at the MRHD (rats; [8]): 0.04 fold
maternal plasma concentration relative to maximal elagolix concentration (Cmax) in humans at the MRHD (rats; [9]): 0.1 fold
dose with (increased) postimplantation loss, multiple of MRHD (pregnant rats; pregnant rats, oral, organogenesis, mid dose group, based on AUC): 12 times the MRHD
fetal malformations (pregnant rats; rat, any dose level tested): No fetal malformations
maternal deaths (pregnant rats; rats, 300, 600 and 1200 mg/kg/day): six deaths
P-gp inhibition (P-glycoprotein (P-gp)): inhibitor
substrate of OATP1B1 (OATP1B1): substrate
